Laboratory results published in patent US20190284192A1, “NITROGENOUS MACROCYCLIC COMPOUND, PREPARATION METHOD THEREFOR, PHARMACEUTICAL COMPOSITION AND APPLICATION THEREOF” (LUOXIN PHARMACEUTICAL (SHANGHAI) CO., LTD., priority 2016, published 2019).

Assays:
[1] = biological target: T1, BRD4 (BD2) (Homo sapiens, UniProt O60885); test: BRD4 (BD2) bromodomain binding, HTRF; conditions: 2 h incubation at r.t.
T1 construct: Each member comprises two tandem bromodomains (BD1 and BD2) for recognizing the acetylated lysine residues

[2] = biological target: T2, BRD4 (BD1) (Homo sapiens, UniProt O60885); test: BRD4 (BD1) bromodomain binding, HTRF; conditions: 2 h incubation at r.t.
T2 construct: Each member comprises two tandem bromodomains (BD1 and BD2) for recognizing the acetylated lysine residues

[3] = tested on: MV-4-11 cells; test: Inhibitory effect on MV-4-11 cells (CellTiter-Glo); format: cell-based; conditions: Homo sapiens, MV4-11; 72 hours, CellTiter-Glo; read-out: MV-4-11

Row | Structure (SMILES) | IC50 [1] [nM] | IC50 [2] [nM] | IC50 [3] [nM]
1 | CCS(=O)(=O)Cc1ccc2c(c1)-c1cn(C)c(=O)cc1[C@H](CC(=O)O)N=C2c1ccc(F)cc1 [Compound 4067, (S)-2-(10-((ethylsulfonyl)methyl)-7-(4-flurophenyl)-2-methyl-3-oxo-3,5-dihydro-2H-benzo[c]pyrido[3,4-e]azepin-5-yl)acetic acid] | 1 | 6 | > 2000
2 | CCS(=O)(=O)Cc1cc2c(cc1F)C(c1ccc(F)cc1)=N[C@@H](C)c1cc(=O)n(C)cc1-2 [Compound 4085, (S)-10-((ethylsulfonyl)methyl)-9-fluoro-7-(4-flurophenyl)-2,5-dimethyl-2,5-dihydro-3H-benzo[c]pyrido[3,4-e]azepin-3-ketone] | 1 | 2 | 4
3 | CCS(=O)(=O)Cc1cc2c(cc1Cl)C(c1ccc(F)cc1)=N[C@@H](C)c1cc(=O)n(C)cc1-2 [Compound 4086, (S)-9-chloro-10-((ethylsulfonyl)methyl)-7-(4-flurophenyl)-2,5-dimethyl-2,5-dihydro-3H-benzo[c]pyrido[3,4-e]azepin-3-ketone] | 1 | 2 | 3
4 | CCS(=O)(=O)Cc1ccc2c(c1)-c1cn(C)c(=O)cc1[C@H](C)N=C2c1ccc(C#N)cc1 [Compound 4075] | 2 | 4 | 10
5 | CCS(=O)(=O)Nc1cc2c(cc1Cl)C(c1ccc(Cl)cc1)=N[C@@H](C)c1cc(=O)n(C)cc1-2 [Compound 4068, (S)—N-(9-chloro-7-(4-chlorophenyl)-2,5-dimethyl-3-oxo-3,5-dihydro-2H-benzo[c]pyrido[3,4-e]azepin-10-yl)ethylsulfonamide] | 0.5 | 1 | 1
6 | CCS(=O)(=O)Cc1ccc2c(c1)-c1cn(C)c(=O)cc1[C@H](C)N=C2c1ccc(F)cc1F [Compound 4046] | 1 | 1 | 4
7 | CCNC(=O)Nc1ccc2c(c1)-c1cn(C)c(=O)cc1[C@H](C)N=C2c1ccc(F)cc1 [Compound 4051, (S)-1-ethyl-3-(7-(4-flurophenyl)-2,5-dimethyl-3-oxo-3,5-dihydro-2H-benzo[c]pyrido[3,4-e]azepin-10-yl)urea] | 3 | 5 | 42
8 | C[C@@H]1N=C(c2ccc(F)cc2)c2ccc(CS(C)(=O)=O)cc2-c2cn(C)c(=O)cc21 [Compound 4059, (S)-7-(4-flurophenyl)-2,5-dimethyl-10-((dimethylfulfone)methyl)-2,5-dihydro-3H-benzo[c]pyrido[3,4-e]azepin-3-ketone] | 1 | 2 | 7
9 | CCS(=O)(=O)Cc1cnc2c(c1)-c1cn(C)c(=O)cc1CN=C2c1ccc(F)cc1 [Compound 4022, 10-((ethylsulfonyl)methyl)-7-(4-fluorophenyl)-2-methyl-2,5-dihydro-3H-dipyrido[2,3-c: 3′,4′-e]azepin-3-ketone] | 7 | 12 | 190
10 | CCS(=O)(=O)Cc1ccc2c(c1)-c1cn(C)c(=O)cc1[C@@H](C)N=C2c1ccc(F)cc1 [Compound 4033, (R)-10-((ethylsulfone)methyl)-7-(4-fluorophenyl)-2,5-dimethyl-2,5-dihydro-3H-benzo[c]pyrido[3,4-e]azepin-3-ketone] | 144 | 341 | 985
11 | CCS(=O)(=O)Cc1ccc2c(c1)-c1cn(C)c(=O)cc1[C@H](C)N=C2c1ccc(OC)cc1 [Compound 4053, (S)-10-((ethylsulfonyl)methyl)-7-(4-methoxylphenyl)-2,5-dimethyl-2,5-dihydro-3H-benzo[c]pyrido[3,4-e]azepin-3-ketone] | 1 | 2 | 7
12 | C[C@@H]1N=C(c2ccc(F)cc2)c2cc(Cl)c(NS(=O)(=O)C3CC3)cc2-c2cn(C)c(=O)cc21 [Compound 4080, (S)—N-(9-chloro-7-(4-flurophenyl)-2,5-dimethyl-3-oxo-3,5-dihydro-2H-benzo[c]pyrido[3,4-e]azepin-10-yl)cyclopropylsulfamide] | 1 | 2 | 3
13 | CCS(=O)(=O)Nc1cc2c(cc1F)C(c1ccc(F)cc1)=N[C@@H](C)c1cc(=O)n(C)cc1-2 [Compound 4055, (S)—N-(9-fluoro-7-(4-flurophenyl)-2,5-dimethyl-3-oxo-3,5-dihydro-2H-benzo[c]pyrido[3,4-e]azepin-10-yl)ethylsulfonamide] | 1 | 1 | 1
14 | CCNC(=O)C[C@@H]1N=C(c2ccc(F)cc2)c2ccc(CS(C)(=O)=O)cc2-c2cn(C)c(=O)cc21 [Compound 4015, (S)—N-ethyl-2-(7-(4-fluorophenyl)-2-methyl-10-(methylsulfonemethyl)-3-oxo-3,5-dihydro-2H-benzo[c]pyrido[3,4-e]azepin-5-yl)acetamide] | 1 | 2 | 69
15 | CCNS(=O)(=O)c1ccc2c(c1)-c1cn(C)c(=O)cc1[C@H](C)N=C2c1ccc(F)cc1 [Compound 4052, (S)—N-ethyl-7-(4-flurophenyl)-2,5-dimethyl-3-oxo-3,5-dihydro-2H-benzo[c]pyrido[3,4-e]azepin-10-sulfamide] | 2 | 6 | 55
16 | Cn1cc2c(cc1=O)[C@H](CC(N)=O)N=C(c1ccc(Cl)cc1)c1ncccc1-2 [Compound 4029, (S)-2-(7-(4-chlorophenyl)-2-methyl-3-oxo-3,5-dihydro-2H-dipyrido[2,3-c:3′,4′-e]azepin-5-yl)acetamide] | 2 | 6 | 69
17 | CCS(=O)(=O)Nc1cc2c(cc1F)C(c1ccc(F)cc1)=N[C@@H](C1CC1)c1cc(=O)n(C)cc1-2 [Compound 4084, (S)—N-(5-cyclopropyl-9-fluoro-7-(4-flurophenyl)-2-methyl-3-oxo-3,5-dihydro-2H-benzo[c]pyrido[3,4-e]azepin-10-yl)ethylsulfonamide] | 1 | 2 | 0.5

Other lines, results leading:

Row | IC50 [1] [nM] | IC50 [2] [nM] | IC50 [3] [nM] | Structure (SMILES)
18 | 0.6 | 1 | 3 | CCS(=O)(=O)Nc1cc2c(cc1F)C(c1ccc(F)cc1)=NN(C)c1cc(=O)n(C)cc1-2 [Compound 4092, N-(9-fluoro-7-(4-flurophenyl)-2,5-dimethyl-3-oxo-3,5-dihydro-2H-benzo[e]pyrido[4,3-c][1,2]diazepin-10-yl)ethylsulfonamide]
19 | 2 | 3 | 6 | CC(C)NC(=O)C[C@@H]1N=C(c2ccc(Cl)cc2)c2ccccc2-c2cn(C)c(=O)cc21 [Compound 4032, (S)-2-(7-(4-chlorophenyl)-2-methyl-3-oxo-3,5-dihydro-2H-benzo[c]pyrido[3,4-e]azepin-5-yl)-N-isopropylacetamide]
20 | 1 | 1 | 3 | CNS(=O)(=O)C(C)(C)c1ccc2c(c1)-c1cn(C)c(=O)cc1[C@H](C)N=C2c1ccc(F)cc1 [Compound 4090, (S)-2-(7-(4-flurophenyl)-2,5-dimethyl-3-oxo-3,5-dihydro-2H-benzo[c]pyrido[3,4-e]azepin-10-yl)-N-methylpropane-2-sulfamide]
21 | 1 | 2 | 1 | CCS(=O)(=O)Nc1ccc2c(c1)-c1cn(C)c(=O)cc1[C@H](C)N=C2c1ccc(F)cc1 [Compound 4049, (S)—N-(7-(4-flurophenyl)-2,5-dimethyl-3-oxo-3,5-dihydro-2H-benzo[c]pyrido[3,4-e]azepin-10-yl)ethylsulfonamide]
22 | 1 | 1 | 32 | CCNC(=O)C[C@@H]1N=C(c2ccc(F)cc2)c2ccc(CS(=O)(=O)CC)cc2-c2cn(C)c(=O)cc21 [Compound 4056, (S)—N-ethyl-2-(10-((ethylsulfonyl)methyl)-7-(4-flurophenyl)-2-methyl-3-oxo-3,5-dihydro-2H-benzo[c]pyrido[3,4-e]azepin-5-yl)acetamide]
23 | 1 | 3 | 1 | C[C@@H]1N=C(c2ccc(F)cc2)c2cc(Cl)c(NS(C)(=O)=O)cc2-c2cn(C)c(=O)cc21 [Compound 4079, (S)—N-(9-chloro-7-(4-flurophenyl)-2,5-dimethyl-3-oxo-3,5-dihydro-2H-benzo[c]pyrido[3,4-e]azepin-10-yl)methylsulfamide]
24 | 43 | 30 | 637 | Cn1cc2c(cc1=O)CN=C(c1ccc(Cl)cc1)c1ccccc1-2 [Compound 4010, 7-(4-chlorophenyl)-2-methyl-2H-benzo[c]pyrido[3,4-e]azepin-3(5H)-ketone]
25 | 1 | 1 | 3 | CCS(=O)(=O)Cc1cc2c(cc1O)C(c1ccc(F)cc1)=N[C@@H](C)c1cc(=O)n(C)cc1-2 [Compound 4063, (S)-10-((ethylsulfonyl)methyl)-7-(4-flurophenyl)-9-hydroxyl-2,5-dimethyl-2,5-dihydro-3H-benzo[c]pyrido[3,4-e]azepin-3-ketone]
26 | 2 | 5 | 43 | CCS(=O)(=O)Cc1ccc2c(c1)-c1cn(C)c(=O)cc1[C@H](C(F)(F)F)N=C2c1ccc(F)cc1 [Compound 4040, (R)-10-((ethylsulfonyl)methyl)-7-(4-flurophenyl)-2-methyl-5-(trifluoromethyl)-2,5-dihydro-3H-benzo[c]pyrido[3,4-e]azepin-3-ketone]
27 | 0.4 | 1 | 0.4 | CCS(=O)(=O)Nc1cc2c(cc1Cl)C(c1ccc(F)cc1)=N[C@@H](C1CC1)c1cc(=O)n(C)cc1-2 [Compound 4077, (S)—N-(9-chloro-5-cyclopropyl-7-(4-flurophenyl)-2-methyl-3-oxo-3,5-dihydro-2H-benzo[c]pyrido[3,4-e]azepin-10-yl)ethylsulfonamide]
